Consider 26 compounds from patent publication US5843941A, “Ras farnesyl transferase inhibitors” (Genentech, Inc., priority 1994, dated 1998).

The test addresses CAAX farnesyltransferase (Rattus norvegicus, UniProt Q02293+Q04631). Nature of the test: In vitro inhibition of CAAX farnesyltransferase. It is filed as biochemical. More on the design: purified to homogeneity from rat brain homogenates; from tissue; host or cells: rat brain; alternatively recombinant enzyme from a baculovirus expression system. To be noted: Table D. The method, then: All compounds were tested for in vitro inhibition of CAAX protein farnesyltransferase. […] Alternatively, recombinant CAAX protein farnesyltransferase was also used in this assay. […] Seventy-two hrs after infection, the cells were harvested and disrupted and the enzyme isolated by chromatography on Q-Sepharose.
After incubation for 30 min at 37° C., the amount of [3H]famesyl group transferred to p21H-ras was measured by precipitation with SDS/trichloroacetic acid, filtration onto nitrocellulose, and scintillation counting.
Structures of the compounds tested are reproduced below. Compound numbers also refer to example numbers above.

[1] abbreviates: diastereomer A, read-out: EC50 (μM) "A".
[2] abbreviates: diastereomer B, read-out: EC50 (μM) "B".

Structures are written as SMILES. Like-named read-outs stand apart in the source and are kept apart here.

Chain of CAAX farnesyltransferase (Q02293 whole entry, one chain of several): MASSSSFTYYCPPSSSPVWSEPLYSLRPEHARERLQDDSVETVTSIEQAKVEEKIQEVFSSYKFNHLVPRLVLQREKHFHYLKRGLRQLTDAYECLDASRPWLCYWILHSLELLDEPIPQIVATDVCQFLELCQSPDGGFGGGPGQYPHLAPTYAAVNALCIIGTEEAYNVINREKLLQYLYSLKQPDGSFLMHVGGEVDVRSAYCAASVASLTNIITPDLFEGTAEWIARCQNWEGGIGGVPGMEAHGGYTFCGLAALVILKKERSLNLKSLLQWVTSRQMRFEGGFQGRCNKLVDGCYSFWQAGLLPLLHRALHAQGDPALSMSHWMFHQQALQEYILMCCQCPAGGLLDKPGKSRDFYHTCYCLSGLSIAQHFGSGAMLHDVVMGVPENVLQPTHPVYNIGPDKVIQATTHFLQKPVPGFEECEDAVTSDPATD

As for `CSCC[C@H](NC(=O)CN1C(=O)C(N(C)C(=O)[C@@H](N)CS)N=C(c2ccccc2)c2ccccc21)C(N)=O` (stereo partly drawn) [compound 33, N-[[3-[(2-amino-3-mercapto-1-oxopropyl)methylamino]-2,3-dihydro-2-oxo-5phenyl-1H-1,4-benzodiazepin-1-yl]acetyl]-L-methionine amide], the EC50 runs as follows: under setting [1], 2.2 µM; under setting [2], 0.019 µM.

Consider `C[C@H](NC(=O)CN1C(=O)C(N(C)C(=O)[C@@H](N)CS)N=C(c2ccccc2)c2ccccc21)C(=O)O` (stereo partly drawn) [compound 35, N-[[3-[(2-amino-3-mercapto-1-oxopropyl)methylamino]-2,3dihydro-2-oxo-5-phenyl-1H-1,4-benzodiazepin-1-yl]acetyl]-L-alanine], for which the EC50 by setting is: under setting [1], over 10 µM; under setting [2], 0.022 µM.

On to `CN(C(=O)[C@@H](N)CS)C1N=C(c2ccccc2)c2ccccc2N(CC(=O)N2CCC[C@H]2C(=O)O)C1=O` (stereo partly drawn) [compound 36, N-[[3-[(2-amino-3-mercapto-1-oxopropyl)methylamino]-2,3-dihydro-2-oxo-5-phenyl-1H-1,4-benzodiazepin-1-yl]acetyl]-L-proline], for which the EC50 was over 10 µM under setting [1] and 0.048 µM under setting [2].

In the case of `CCOC(=O)[C@H](CCSC)NC(=O)CN1C(=O)C(N(C)C(=O)[C@@H](N)CS)N=C(c2ccccc2)c2ccccc21` (stereo partly shown) [compound 39], the EC50 was 8 µM under setting [1] and 0.11 µM under setting [2].

Consider `CSCC[C@H](NC(=O)CN1C(=O)C(N(C)C(=O)[C@@H](N)CS)N=C(c2ccccc2)c2ccccc21)C(=O)OC1CCCCC1` (stereo partly shown) [compound 41], for which the EC50 runs as follows: under setting [1], 4.2 µM; under setting [2], 0.074 µM.

As to `CCN[C@@H](CS)C(=O)N(C)C1N=C(c2ccccc2)c2ccccc2N(CC(=O)N[C@@H](CCSC)C(=O)O)C1=O` (stereo partly drawn) [compound 42, N-[[3-[(2-ethylamino-3-mercapto-1-oxopropyl)methylamino]-2,3-dihydro-2-oxo-5-phenyl-1H-1,4-benzodiazepin-1-yl]acetyl]-L-methionine], the EC50 under setting [1] stood at 0.58 µM and the EC50 under setting [2] was 0.018 µM.

Turning to `CN(C(=O)[C@@H](N)CS)C1N=C(c2ccccc2)c2ccccc2N(CC(=O)N[C@@H](CS)C(=O)O)C1=O` (stereo partly drawn) [compound 44, N-[[3-[(2-Amino-3-mercapto-1-oxopropyl)methylamino]-2,3-dihydro-2-oxo-5phenyl-1H-1,4-benzodiazepin-1-yl]acetyl]-L-cysteine], the EC50 runs as follows: under setting [1], 3 µM; under setting [2], 0.0045 µM.

With `CSCC[C@H](NC(=O)CN1C(=O)C(N(C)C(=O)[C@@H](N)CO)N=C(c2ccccc2)c2ccccc21)C(=O)O` (stereo partly drawn) [compound 45, N-[[3-[(2-amino-3-hydroxy-1-oxopropyl)methylamino]-2,3-dihydro-2-oxo-5-phenyl-1H-1,4-benzodiazepin-1-yl]acetyl]-L-methionine], the EC50 is over 10 µM under setting [1] and over 10 µM under setting [2].

For `CSCC[C@H](NC(=O)CN1C(=O)C(N(C)C(=O)[C@@H](N)CS)N=C(c2ccccc2)c2ccccc21)c1nnn[nH]1` (stereo partly drawn) [compound 47, N-[[3-[(2-amino-3-mercapto-1-oxopropyl)methylamino]-2,3-dihydro-2-oxo-5-phenyl-1H-1,4-benzodiazepin-1-yl]acetyl]-L-methionine tetrazole], the EC50 was found to be 0.044 µM (EC50 (μM) "A", diastereomer A) and 0.0046 µM (EC50 (μM) "B", diastereomer B).

For the compound `CSCC[C@H](NC(=O)CCN1C(=O)C(N(C)C(=O)[C@@H](N)CS)N=C(c2ccccc2)c2ccccc21)C(=O)O` (stereo partly shown) [compound 48], the 50% effective concentration (EC50) reads like this: under setting [1], 2.5 µM; under setting [2], 0.004 µM.

Consider `CSCC[C@](C)(NC(=O)CN1C(=O)C(N(C)C(=O)[C@@H](N)CS)N=C(c2ccccc2)c2ccccc21)C(=O)O` (stereo partly drawn) [compound 49, N-[[3-[(2-amino-3-mercapto-1-oxopropyl)methylamino]-2,3-dihydro-2-oxo-5-phenyl-1H-1,4-benzodiazepin-1-yl]acetyl]-(α-methyl)-methionine], for which the EC50 reads like this: under setting [1], 0.74 µM; under setting [2], 0.006 µM.

Turning to `CC(C)[C@H](NC(=O)CN1C(=O)C(N(C)C(=O)[C@@H](N)CS)N=C(c2ccccc2)c2ccccc21)C(=O)O` (stereo partly drawn) [compound 50, N-[[3-[(2-amino-3-mercapto-1-oxopropyl)methylamino]-2,3-dihydro-2-oxo-5-phenyl-1H-1,4benzodiazepin-1-yl]acetyl]-L-valine], the EC50 is over 3 µM under setting [1] and 0.0008 µM under setting [2].

As to `C[C@@H](O)[C@H](NC(=O)CN1C(=O)C(N(C)C(=O)[C@@H](N)CS)N=C(c2ccccc2)c2ccccc21)C(=O)O` (stereo partly drawn) [compound 51, N-[[3-[(2-amino-3-mercapto-1-oxopropyl)methylamino]-2,3-dihydro-2-oxo-5-phenyl-1H-1,4-benzodiazepin-1-yl]acetyl]-L-threonine], the EC50 is over 3 µM under setting [1] and 0.0017 µM under setting [2].

For `CN(C(=O)[C@@H](N)CS)C1N=C(c2ccccc2)c2ccccc2N(CC(=O)N[C@@H](CCC(N)=O)C(=O)O)C1=O` (stereo partly drawn) [compound 52, N-[[3-[(2-amino-3-mercapto-1-oxopropyl)methylamino]-2,3-dihydro-2-oxo-5-phenyl-1H-1,4-benzodiazepin-1-yl]acetyl]-L-glutamine], the EC50 under setting [1] is over 3 µM and the EC50 under setting [2] is 0.0018 µM.

In the case of `CN(C(=O)[C@@H](N)CS)C1N=C(c2ccccc2)c2ccccc2N(CC(=O)NCC(=O)O)C1=O` (stereo partly shown) [compound 53, N-[[3-[(2-amino-3-mercapto-1-oxopropyl)methylamino]-2,3-dihydro-2-oxo-5-phenyl-1H-1,4-benzodiazepin-1-yl]acetyl]-glycine], the EC50 runs as follows: under setting [1], over 3 µM; under setting [2], 0.0004 µM.

Regarding `CN(C(=O)[C@@H](N)CS)C1N=C(c2ccccc2)c2ccccc2N(CC(=O)N[C@@H](Cc2ccc(O)cc2)C(=O)O)C1=O` (stereo partly drawn) [compound 54, N-[[3-[(2-amino-3-mercapto-1-oxopropyl)methylamino]-2,3-dihydro-2-oxo-5-phenyl-1H-1,4-benzodiazepin-1-yl]acetyl]-L-tyrosine], the EC50 was 1.5 µM under setting [1] and 0.004 µM under setting [2].

On to `CN(C(=O)[C@@H](N)CS)C1N=C(c2ccccc2)c2ccccc2N(CC(=O)N[C@@H](CC2CCCCC2)C(=O)O)C1=O` (stereo partly drawn) [compound 57, N-[[3-[(2-amino-3-mercapto-1-oxopropyl)methylamino]-2,3-dihydro-2-oxo-5-phenyl-1H-1,4-benzodiazepin-1-yl]acetyl]-(β-cyclohexyl)-L-alanine], for which the EC50 under setting [1] is 2 µM and the EC50 under setting [2] stood at 0.0015 µM.

With `CN(C(=O)[C@@H](N)CS)C1N=C(c2ccccc2)c2ccccc2N(CC(=O)N[C@H](C(=O)O)C2CCCCC2)C1=O` (stereo partly drawn) [compound 58, N-[[3-[(2-amino-3-mercapto-1-oxopropyl)methylamino]-2,3-dihydro-2-oxo-5-phenyl-1H-1,4-benzodiazepin-1-yl]acetyl]-(α-cyclohexyl)-glycine], the EC50 worked out at 1.1 µM under setting [1] and 0.0006 µM under setting [2].

On to `CN(C(=O)[C@@H](N)CS)C1N=C(c2ccccc2)c2ccccc2N(CC(=O)N[C@@H](CCc2ccccc2)C(=O)O)C1=O` (stereo partly drawn) [compound 59, N-[[3-[-(2-amino-3-mercapto-1-oxopropyl)methylamino]-2,3-dihydro-2-oxo-5-phenyl-1H-1,4-benzodiazepin-1-yl]acetyl]-L-homo-phenylalanine], for which the EC50 turned out to be 1.1 µM under setting [1] and 0.0012 µM under setting [2].

Take `CN(C(=O)[C@@H](N)CS)C1N=C(c2ccccc2)c2ccccc2N(CC(=O)N[C@@H](Cc2ccc(F)cc2)C(=O)O)C1=O` (stereo partly shown) [compound 60]: the EC50 by setting is: under setting [1], 0.94 µM; under setting [2], 0.0005 µM.

Regarding `CN(C(=O)[C@@H](N)CS)C1N=C(c2ccccc2)c2ccccc2N(CC(=O)N[C@@H](Cc2ccc(-c3ccccc3)cc2)C(=O)O)C1=O` (stereo partly drawn) [compound 61, N-[[3-[(2-amino-3-mercapto-1-oxopropyl)methylamino]-2,3-dihydro-2-oxo-5-phenyl-1H-1,4-benzodiazepin-1-yl]acetyl]-(β-biphenyl)-L-alanine], the EC50 reads like this: under setting [1], 1.7 µM; under setting [2], 0.0035 µM.

For `CCCC[C@H](NC(=O)CN1C(=O)C(N(C)C(=O)[C@@H](N)CS)N=C(c2ccccc2)c2ccccc21)C(=O)O` (stereo partly drawn) [compound 62, N-[[3-[(2-amino-3-mercapto-1-oxopropyl)methylamino]-2,3-dihydro-2-oxo-5-phenyl-1H-1,4benzodiazepin-1-yl]acetyl]-L-norleucine], the EC50 came out at 0.72 µM under setting [1] and 0.0005 µM under setting [2].

With `CSCC[C@@H](C(=O)O)N(C)C(=O)CN1C(=O)C(NC(=O)[C@@H](N)CS)N=C(c2ccccc2)c2ccccc21` (stereo partly shown) [compound 63], the EC50 was over 10 µM under setting [1] and 2 µM under setting [2].

Regarding `CSCC[C@@H](C(=O)O)N(C)C(=O)CN1C(=O)C(N(C)C(=O)[C@@H](N)CS)N=C(c2ccccc2)c2ccccc21` (stereo partly drawn) [compound 64, N-[[3-[(2-amino-3-mercapto-1-oxopropyl)methylamino]-2,3-dihydro-2-oxo-5-phenyl-1H-1,4-benzodiazepin-1-yl]acetyl]-(N-methyl)-L-methionine], the EC50 under setting [1] was found to be 0.26 µM and the EC50 under setting [2] was 0.002 µM.

Take `CN(CC(=O)O)C(=O)CN1C(=O)C(N(C)C(=O)[C@@H](N)CS)N=C(c2ccccc2)c2ccccc21` (stereo partly shown) [compound 65, N-[[3-[(2-amino-3-mercapto-1-oxopropyl)methylamino]-2,3-dihydro-2-oxo-5-phenyl-1H-1,4-benzodiazepin-1-yl]acetyl]-(N-methyl)-glycine]: the EC50 by setting is: under setting [1], over 3 µM; under setting [2], 0.0038 µM.

Consider `CN(C(=O)[C@@H](N)CS)C1N=C(c2ccccc2)c2ccccc2N(CC(=O)N(CC(=O)O)Cc2ccccc2)C1=O` (stereo partly shown) [compound 66], for which the EC50 is, setting by setting: under setting [1], 2.4 µM; under setting [2], 0.0006 µM.
